Test results: patent US9243037B2, “Gramicidin a mutants that function as antibiotics with improved solubility and reduced toxicity” (Trustees of Boston College, priority 2011, dated 2016)
Converted amounts (≈) assume the structure as drawn. “Also recorded” adds a separate entry of the source.

How the values were obtained:
[1] = test system: Bacillus subtilis (ATCC 663)
[2] = K+ release from liposomes, lipid not specified; type: biochemical; conditions: in words
Description: With the D-Lys residues incorporated towards the C-terminus, the gA peptide analogs described herein display amphipathic sequences. Since many amphipathic peptides are known to cause membrane damage through a detergent-like mechanism instead of forming specific channels,[19] it was further examined whether it is the case with the gA peptide analogs provided herein. Toward this end, the ion selectivity of gA-3, 4, and 5 was assessed by using liposomes encapsulating K+ and Tb3+ respectively. […] The wild type like channel structure of the D-Lys mutants is further supported by the fact that gA-5 and gA-WT share similar signatures in their circular dichroism spectra (FIG. 11). This exclusive leakage of monovalent cations presents a great advantage of the gA analog peptides described herein in comparison to the majority of AMPs, which often cause catastrophic membrane collapse to release all bacterial cellular content, leading to potential complications of over-stimulated immune response.
The K+ leakage from liposomes was determined by a potassium ion selective electrode (K-ISE, Cole-Parmer, Vernon Hills, Ill.). The electrode was calibrated each day before experiments. A liposome solution in Buffer A (2 mL, 500 μM POPC or POPC/POPG⊃10 mM HEPES, 150 mM KCl, pH 7.0) was stirred at constant speed and peptide at various concentration (1 μL in DMSO) was added accumulatively. Three minutes after each peptide addition, the K+ concentration was measured and reported as the K-ISE potential. At the end of each experiment, gA-WT stock (1 μL, 1 mM) was added to induce 100% K+ leakage. The potential reported by the K-ISE was plotted against peptide concentration after the background noise (caused by DMSO addition) was subtracted and normalized to 0-100%.

[3] = Trp absorbance @ 280 nm; 10 mM PBS, pH 7.0, 1% DMSO; values taken from ref; cited from earlier work
[4] = Peptide distribution in EYPC LUVs by Trp fluorescence; type: binding; conditions: peptide added to LUVs; in words
Description: The peptides distribution was determined by monitoring Trp fluorescence and the channel activity was determined by monitoring the proton leakage from LUVs using a pH sensitive fluorescence dye HPTS. […]

physchem = type: physicochemical
How it was run: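 Peptide DMSO stock (6.0-8.0 mM) diluted 100-fold into 10 mM HEPES, pH 7.0, giving 1% DMSO; sonicated 30 min, centrifuged 14,000 rpm for 10 min. Supernatant concentration determined from tryptophan absorbance at 280 nm (ε=22760 M−1 cm-1).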

[5] = Tb3+ leakage from liposomes, lipid not specified; type: biochemical; conditions: at peptide concentrations causing complete K+ release; in words

## CC(C)C[C@@H](NC(=O)[C@H](C)NC(=O)CNC(=O)[C@@H](NC=O)C(C)C)C(=O)N[C@@H](C)C(=O)N[C@@H](C(=O)N[C@H](C(=O)N[C@@H](C(=O)N[C@@H](Cc1c[nH]c2ccccc12)C(=O)N[C@H](CCCCN)C(=O)N[C@@H](Cc1c[nH]c2ccccc12)C(=O)N[C@H](CCCCN)C(=O)N[C@@H](Cc1c[nH]c2ccccc12)C(=O)N[C@H](CCCCN)C(=O)N[C@@H](Cc1c[nH]c2ccccc12)C(=O)NCCO)C(C)C)C(C)C)C(C)C (racemic) [gA-5, formyl-V-G-A-dL-A-dV-V-dV-W-dK-W-dK-W-dK-W-NHCH2CH2OH]
[1]; ATCC 663
  MICs B. Subtilius: 5 µM
[1]; B. subtilis
  MIC relative to wild-type Gramicidin A: equivalent to or ˜2-fold higher
[1]; B. subtilis, in words
  antibacterial activity: highly potent
[2]
  K+ release from LUVs: potent activity in K+ release; also recorded: complete K^+ leakage
[3]
  Sat. Conc, Lys series: 72 µM
[4]
  binding to EYPC LUVs: neither peptides bound to EYPC LUVs upon addition
physchem
  solubility compared with the wild type: three orders of magnitude
  water solubility, fold higher than wild-type Gramicidin A: ~1500 fold
physchem; pH 7
  solubility at 30 mins: ~100 µM (≈ 193 µg/mL)
[5]
  Tb3+ leakage from LUVs: essentially no Tb3+ leakage; also recorded: little to no difference
